From article PMC9841531, “Indole Derivatives as New Structural Class of Potent and Antiproliferative Inhibitors of Monocarboxylate Transporter 1 (MCT1; SLC16A1)” (Journal of Medicinal Chemistry, 2022)

Key:
Type in all cases: cell-based
[1] = tested on: MCT1-expressing A-549 cells; assay: MTT-based efficacy assay, 33 in combination with test compound, A-549; conditions: for factor of sensitization of A-549 cells against 33: shift of concentration-effect curve of 33; for Increase Susceptibility toward 33 (Factor): supplement csv
Method: MCT1 inhibition anticipates challenging cancer cell energy supply and, thus, increases the efficacy of anticancer agents.
For this purpose, 10 μL of compounds 24 or 30 (50 nM, 100 nM, or 500 nM) was transferred onto a colorless flat-bottom 96-well microplate and complemented with 180 μL of a cell suspension containing either approximately 5,000 A-549 cells. A dilution series of compound 33 at concentrations between 50 nM and 50 μM was generated, and 10 μL of each concentration was transferred onto the plate. The observed effects of compounds 24 and 30 were compared to the effect of compound 33 alone on A-549. The plates were incubated for 72 h at 37 °C and a 5% CO2-humidified atmosphere, before subsequent processing with the regular MTT assay as described above.[43]

A-549 cells [2] = assay: cell cycle distribution analysis, PI flow cytometry; conditions: 5 μM, 24 h
Method: The antineoplastic agent 33 (5 μM) was used as a reference. […] Compound 24 caused a disruption of the cell cycle of A-549 cancer cells, indicated by a shift from the predominant G0/G1 phase (Figure 8A) to the apoptotic sub-G1 phase as well as the G2/M phase (Figure 8B). A similar G2/M arrest could be observed for reference compound 33 (Figure 8C); however, MCT1 inhibitor 24 led to a larger fraction of cells into the sub-G1 phase, indicating induced apoptosis. This experiment discovered that compound 24 inhibits cell proliferation, causing cell cycle arrest and, eventually, apoptosis. To confirm our findings, we conducted an apoptosis assay using compound 24.
A standard PI staining procedure was used as described earlier[44]−[46] to determine the effect of compounds 24 and 33 on cell cycle progression, followed by flow cytometry analysis (FACS Aria SORP and FACS Aria Fusion, BD Biosciences, Franklin Lakes, NJ). In brief, A-549 cells were seeded onto a 6-well plate (250,000 cells/well) and incubated for 24 h at 37 °C under a 5% CO2-humidified atmosphere before being observed under a microscope. The cells were treated with compound 24 (5 μM) or 33 (5 μM) and further incubated for 24 h at 37 °C under a 5% CO2-humidified atmosphere. Then, the cells were harvested and washed twice with cold PBS (Genetix Biotech Asia, New Delhi, India) before being fixed overnight in ice-cold 70% (v/v) ethanol at 4 °C. The cells were again washed two times with PBS and subsequently resuspended with RNase (100 μg/mL; HiMedia, Mumbai, India) and their DNA was stained with PI (40 μg/mL; Sigma-Aldrich, Mumbai, India) before being incubated in the dark for 10 min. The DNA content was measured at the Indian Institute of Technology Bombay (IITB, Mumbai, India) by applying flow cytometry.

A-549 cells [3] = assay: PI/Annexin V-FITC apoptosis assay; conditions: 5 μM
From the text: As compound 24 increased the sub-G1 cell cycle fraction of A-549 cells, we investigated its capability to induce apoptosis in a PI/Annexin V-FITC staining assay, as reported earlier.[44],[46]−[51] In short, cells that were stained with PI only were considered necrotic cells (Q1), while cells stained with both PI and Annexin V were late apoptotic (Q2), and cells stained with Annexin V only were early apoptotic (Q4). Cells negative on both PI and Annexin V were considered living cells (Q3).
A PI/Annexin V-FITC double staining method was used to carry out a flow cytometry-based apoptosis assay, as reported earlier.[44],[46]−[51] For this purpose, a PI/Annexin V-FITC apoptosis detection kit (BD Biosciences, Franklin Lakes, NJ) was used following the manufacturer’s instructions. A-549 cells were seeded onto 6-well plates with a density of 500,000 cells/well and incubated for 24 h at 37 °C under a 5% CO2-humidified atmosphere. Subsequently, the cells were exposed to compound 24 (5 μM) followed by a further incubation period of 24 h at 37 °C under a 5% CO2-humidified atmosphere. The cells were trypsinized, washed with PBS, and resuspended in 1x binding buffer (1,000,000 cells/mL). One hundred microliters of test solution containing 100,000 cells treated with a mixture of PI (5 μL) and Annexin V-FTIC (5 μL) was incubated in the dark for 10–15 min at room temperature. Four hundred microliters of binding buffer was added, and the cells were resuspended again just before the flow cytometry analysis by using flow cytometry.

ABCB1 (P-gp) = ABCB1 (P-gp) (Homo sapiens, UniProt P08183); assay: daunorubicin assay, ABCB1-expressing A2780/ADR cells; conditions: human, ABCB1-expressing A2780/ADR cells, probe daunorubicin (3 μM final); relative to reference inhibitor 34 = 100%; read-out: maximal inhibition (Imax), ABCB1 daunorubicin
ABCB1 (P-gp), sequence (P08183 whole entry): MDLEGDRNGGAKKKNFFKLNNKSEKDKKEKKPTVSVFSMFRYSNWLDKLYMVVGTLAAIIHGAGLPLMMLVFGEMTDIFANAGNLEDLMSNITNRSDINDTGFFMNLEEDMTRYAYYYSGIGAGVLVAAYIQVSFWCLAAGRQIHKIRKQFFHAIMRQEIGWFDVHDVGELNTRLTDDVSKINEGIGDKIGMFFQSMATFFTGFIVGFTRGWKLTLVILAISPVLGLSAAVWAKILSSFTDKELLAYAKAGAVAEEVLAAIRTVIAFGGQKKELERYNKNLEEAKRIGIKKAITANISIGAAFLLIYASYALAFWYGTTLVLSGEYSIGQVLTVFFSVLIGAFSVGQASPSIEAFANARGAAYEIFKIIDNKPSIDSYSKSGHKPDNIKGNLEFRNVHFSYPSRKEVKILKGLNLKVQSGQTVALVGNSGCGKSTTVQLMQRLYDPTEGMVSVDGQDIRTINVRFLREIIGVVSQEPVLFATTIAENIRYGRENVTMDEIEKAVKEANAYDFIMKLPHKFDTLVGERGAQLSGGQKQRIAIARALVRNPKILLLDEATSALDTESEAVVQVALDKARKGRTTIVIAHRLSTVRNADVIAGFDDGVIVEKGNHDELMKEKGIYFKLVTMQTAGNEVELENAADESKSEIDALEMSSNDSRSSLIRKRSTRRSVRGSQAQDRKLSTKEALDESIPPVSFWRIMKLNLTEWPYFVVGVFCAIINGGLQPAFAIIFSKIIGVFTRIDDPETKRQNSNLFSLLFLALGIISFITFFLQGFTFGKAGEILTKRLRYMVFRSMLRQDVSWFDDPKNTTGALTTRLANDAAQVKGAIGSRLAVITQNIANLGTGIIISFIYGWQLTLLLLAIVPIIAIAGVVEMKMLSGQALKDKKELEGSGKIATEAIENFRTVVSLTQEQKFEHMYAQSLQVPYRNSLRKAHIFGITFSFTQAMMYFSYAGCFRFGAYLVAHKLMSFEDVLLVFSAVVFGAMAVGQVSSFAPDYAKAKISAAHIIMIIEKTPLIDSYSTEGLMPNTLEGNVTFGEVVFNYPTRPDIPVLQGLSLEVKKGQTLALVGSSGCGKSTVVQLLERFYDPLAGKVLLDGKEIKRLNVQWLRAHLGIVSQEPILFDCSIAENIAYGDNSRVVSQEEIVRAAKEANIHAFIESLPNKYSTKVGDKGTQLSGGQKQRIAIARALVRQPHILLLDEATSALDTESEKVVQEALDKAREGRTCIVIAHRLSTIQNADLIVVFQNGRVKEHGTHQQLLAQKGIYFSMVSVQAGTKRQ

[4] = tested on: ABCB1-expressing A2780/ADR cells; assay: MTT-based efficacy (MDR-reversal) assay, 33 in combination with test compound, A2780/ADR; conditions: for sensitization of ABCB1-expressing A2780/ADR cells against 33: 5 μM; for EC50: from resistance factors of 33 (A2780/ADR vs A2780) against compound concentration, read-out: half-maximal reversal concentration (EC50)
Method: This sensitization is indicated by a shift of the concentration-effect curve of compound 33 from the right (=high concentrations of 33 needed to induce A2780/ADR cell death) to the left (=lower concentrations of 33 needed to induce A2780/ADR cell death). The concentration-effect curve of compound 33 in combination with 5 μM of either compound 24 or 30 resembles the concentration-effect curve of the sensitive cell line A2780. […] Thus, their potentiating effect with respect to the antiproliferative agent 33 against ABCB1-expressing A2780/ADR cells is due to the inhibition of ABCB1. Therefore, compounds 24 and 30 were dually effective against MCT1- and ABCB1-expressing cells (Table 5).
An MDR-reversal assay[2],[55]−[59] was used to investigate the ability to reverse ABCB1-mediated MDR in A2780/ADR cells toward the cytotoxic ABCB1 substrate 33. […] A dilution series of 33 at concentrations between 0.1 μM and 100 μM was generated, and 20 μL of each concentration was transferred onto the plates (final concentration: 0.01–10 μM). The plates were incubated for 72 h at 37 °C and a 5% CO2-humidified atmosphere, before subsequent processing with the regular MTT assay as described above. The observed effects of compounds 24 and 30 were compared to the effect of 33 alone on A2780/ADR cells as well as its sensitive counterpart A2780 (∼10,000 cells/well).

[5] = molecular target: ABCB1 (P-glycoprotein, P-gp) (Homo sapiens, UniProt P08183); assay: daunorubicin assay, ABCB1-expressing A2780/ADR cells; conditions: human, ABCB1-expressing A2780/ADR cells, probe daunorubicin (3 μM final); relative to reference inhibitor 34 = 100%; read-out: maximal inhibition (Imax), ABCB1 daunorubicin
ABCB1 (P-glycoprotein, P-gp), sequence (P08183 whole entry): as above

Compound | factor of sensitization of A-549 cells against 33 [1] | Increase Susceptibility toward 33 (Factor) [1] | cells in G0/G1 phase (A-549 cells [2]) [%] | cells in G2/M phase (A-549 cells [2]) [%] | cells in S phase (A-549 cells [2]) [%] | cells in Sub-G1 phase (A-549 cells [2]) [%] | factor of increase of total apoptotic cells vs untreated (A-549 cells [3]) | Q1 necrotic cells (PI only) (A-549 cells [3]; 24 h) [%] | Q2 late apoptotic cells (PI and Annexin V) (A-549 cells [3]; 24 h) [%] | Q3 living cells (A-549 cells [3]; 24 h) [%] | Q4 early apoptotic cells (Annexin V only) (A-549 cells [3]; 24 h) [%] | percentage of total apoptotic cells (A-549 cells [3]; 24 h, untreated 0.51%) [%] | inhibition at 180 min (ABCB1 (P-gp)) [%] | sensitization of ABCB1-expressing A2780/ADR cells against 33 [4] | EC50 [4] [nM] | inhibition at 180 min [5] [%]
COC(=O)/C(C#N)=C/c1cn(CC(=O)Nc2ccc(OC)cc2)c2ccccc12 [Compound 24, Methyl-2-cyano-3-(1-(2-((4-methoxyphenyl)amino)-2-oxoethyl)-1H-indol-3-yl) Acrylate] | 2.5 | 2.5 | 38.1 | 22.3 | 18.0 | 20.6 | 13 | 10.6 | 5.08 | 82.7 | 1.60 | 6.68 | 84 | completely sensitized | 793 ± 39 | 
COC(=O)/C(C#N)=C/c1cn(CC(=O)Nc2ccc(C)cn2)c2ccccc12 [Compound 30, Methyl-2-cyano-3-(1-(2-((5-methylpyridin-2-yl)amino)-2-oxoethyl)-1H-indol-3-yl) Acrylate] | 2.6 | 2.6 |  |  |  |  |  |  |  |  |  |  |  | completely sensitized | 1220 ± 10 | 93.3
